Data from patent publication US10208083B2 (priority 2015, dated 2019).
Marks after values point to notes of the source that are not given here.

Key:
[1] = system: murine P388 lymphocytic leukemia; parameters: species or system mice; conditions: mouse, in vivo, ip; note: test concentration or dose not given here
UWB1.289 = test: cells; format: cell-based, human; parameters: TGI: unit not given here; conditions: for GI50 / IC50: Homo sapiens, UWB1289, 48 h
OVCAR-3 = test: cells; format: cell-based, human; parameters: TGI: unit not given here; conditions: for GI50 / IC50: Homo sapiens, OVCAR-3, 48 h
T-47D = test: cells; format: cell-based, human; parameters: TGI: unit not given here; conditions: for GI50 / IC50: Homo sapiens, T47D, 48 h
PC-3 = test: cells; format: cell-based, human; parameters: TGI: unit not given here; conditions: for GI50 / IC50: Homo sapiens, PC-3, 48 h
UWB1.289 + BRCA1 = test: cells; format: cell-based, human; parameters: TGI: unit not given here; conditions: for GI50 / IC50: Homo sapiens, UWB1289, 48 h
K-562 = test: cells; format: cell-based, human; parameters: TGI: unit not given here; conditions: for GI50 / IC50: Homo sapiens, K562, 48 h
in vivo = conditions: female, C57Bl/6, mouse, ip
[2] = system: SCOV-3 human ovarian cancer; conditions: in vivo; for OS % on Day-70: test concentration or dose not given here; for PFS % on Day-70: test concentration or dose not given here
MCF-7 = test: cells; format: cell-based, human; parameters: TGI: unit not given here; conditions: for GI50 / IC50: Homo sapiens, MCF7, 48 h
SKOV-3 = test: cells; format: cell-based, human; parameters: TGI: unit not given here; conditions: for GI50 / IC50: Homo sapiens, SK-OV-3, 48 h
MOLT-4 = test: cells; format: cell-based, human; parameters: TGI: unit not given here; conditions: for GI50 / IC50: Homo sapiens, MOLT-4, 48 h
C57Bl/6 mice = conditions: female, C57Bl/6, mouse, in vivo, ip

With `C[C@]12CC[C@H]3[C@@H](CCC4=CC(=O)NCC[C@@]43C)[C@@H]1CC[C@@H]2OC(=O)CCOc1ccc(N(CCCl)CCCl)cc1` [Compound 3] the Cures [1] was 0/6, the “MST ± SD” value [1] was 39 days and the T/C % [1] was 433* %. The TGI (UWB1.289) was 8, the GI50 (UWB1.289) was 3 µM and the IC50 (UWB1.289) was 20 µM. The TGI (OVCAR-3) was 32, the GI50 (OVCAR-3) was 21 µM and the IC50 (OVCAR-3) was 42 µM. The TGI (T-47D) was 25, the GI50 (T-47D) was 10 µM and the IC50 (T-47D) was 66 µM. For the same compound, the TGI (PC-3) was 30, the GI50 (PC-3) was 22 µM and the IC50 (PC-3) was 56 µM. For the same compound, the TGI (UWB1.289 + BRCA1) was 25, the GI50 (UWB1.289 + BRCA1) was 12 µM and the IC50 (UWB1.289 + BRCA1) was 40 µM. It also gave a TGI (K-562) of 30, a GI50 (K-562) of 3 µM and an IC50 (K-562) of 71 µM. For the same compound, the LD50 (in vivo) was 150 mg/kg, the “OS % on Day-70” value [2] was 100% and the “PFS % on Day-70” value [2] was 100%. The “TI % at Day-35” value [2] was 62%, the TGI (MCF-7) was 38 and the GI50 (MCF-7) was 17 µM. It also gave an IC50 (MCF-7) of 70 µM, a TGI (SKOV-3) of 52 and a GI50 (SKOV-3) of 18 µM. For the same compound, the IC50 (SKOV-3) was 76 µM, the TGI (MOLT-4) was 27 and the GI50 (MOLT-4) was 3 µM. For the same compound, the IC50 (MOLT-4) was 65 µM and the LD10 (C57Bl/6 mice) was 130 mg/kg.
For `C[C@]12CC[C@H](OC(=O)CCOc3ccc(N(CCCl)CCCl)cc3)CC1=CC(=O)N[C@@H]1[C@@H]2CC[C@]2(C)C(=O)CC[C@@H]12` [Compound 18], the Cures [1] was 0/6, the “MST ± SD” value [1] was 34 days and the T/C % [1] was 378* %. For the same compound, the TGI (UWB1.289) was 42, the GI50 (UWB1.289) was 13 µM and the IC50 (UWB1.289) was 70 µM. The TGI (OVCAR-3) was 47, the GI50 (OVCAR-3) was 20 µM and the IC50 (OVCAR-3) was 70 µM. The TGI (T-47D) was 32, the GI50 (T-47D) was 14 µM and the IC50 (T-47D) was 72 µM. For the same compound, the TGI (PC-3) was 36, the GI50 (PC-3) was 23 µM and the IC50 (PC-3) was 70 µM. It also gave a TGI (UWB1.289 + BRCA1) of 38, a GI50 (UWB1.289 + BRCA1) of 20 µM and an IC50 (UWB1.289 + BRCA1) of 69 µM. The TGI (K-562) was 38, the GI50 (K-562) was 6 µM and the IC50 (K-562) was 87 µM. For the same compound, the LD50 (in vivo) was 110 mg/kg, the “OS % on Day-70” value [2] was 100% and the “PFS % on Day-70” value [2] was 80%. The “TI % at Day-35” value [2] was 44%, the TGI (MCF-7) was 46 and the GI50 (MCF-7) was 21 µM. It also gave an IC50 (MCF-7) of 79 µM, a TGI (SKOV-3) of 46 and a GI50 (SKOV-3) of 24 µM. For the same compound, the IC50 (SKOV-3) was 68 µM, the TGI (MOLT-4) was 38 and the GI50 (MOLT-4) was 5 µM. It also gave an IC50 (MOLT-4) of 76 µM and an LD10 (C57Bl/6 mice) of 85 mg/kg.
In the case of `C[C@]12CC[C@H](OC(=O)Cc3ccc(N(CCCl)CCCl)cc3)C[C@@H]1CC[C@@H]1[C@@H]2CC[C@@]2(C)NC(=O)CC[C@@H]12` [ASE, 3beta-hydroxy-13alpha-amino-13,17-seco-5alpha-androstan-17-oic-13,17-lactam-[p-[bis (2-chloroethyl)amino]phenyl]acetate, reference compound], the Cures [1] is reported as 0/6, the “MST ± SD” value [1] is reported as 24 days and the T/C % [1] is reported as 267* %. The TGI (UWB1.289) was 30, the GI50 (UWB1.289) was 16 µM and the IC50 (UWB1.289) was 54 µM. The TGI (OVCAR-3) was 52, the GI50 (OVCAR-3) was 36 µM and the IC50 (OVCAR-3) was 64 µM. The TGI (T-47D) was 47, the GI50 (T-47D) was 22 µM and the IC50 (T-47D) was 92 µM. It also gave a TGI (PC-3) of 49, a GI50 (PC-3) of 34 µM and an IC50 (PC-3) of 89 µM. For the same compound, the TGI (UWB1.289 + BRCA1) was >100, the GI50 (UWB1.289 + BRCA1) was 80 µM and the IC50 (UWB1.289 + BRCA1) was > 100 µM. For the same compound, the TGI (K-562) was 78, the GI50 (K-562) was 9 µM and the IC50 (K-562) was > 100 µM. The LD50 (in vivo) was 50 mg/kg, the “OS % on Day-70” value [2] was 80% and the “PFS % on Day-70” value [2] was 40%. For the same compound, the “TI % at Day-35” value [2] was 34%, the TGI (MCF-7) was 57 and the GI50 (MCF-7) was 29 µM. For the same compound, the IC50 (MCF-7) was 96 µM, the TGI (SKOV-3) was 92 and the GI50 (SKOV-3) was 45 µM. The IC50 (SKOV-3) was > 100 µM, the TGI (MOLT-4) was 56 and the GI50 (MOLT-4) was 8 µM. For the same compound, the IC50 (MOLT-4) was 93 µM and the LD10 (C57Bl/6 mice) was 30 mg/kg.
For `C[C@]12CC(=O)[C@H]3[C@@H](CCC4=CC(=O)NCC[C@@]43C)[C@@H]1CC[C@@H]2OC(=O)CCOc1ccc(N(CCCl)CCCl)cc1` [Compound 11], the Cures [1] was 1/6, the “MST ± SD” value [1] was 56 days and the T/C % [1] was 622* %. It also gave a TGI (UWB1.289) of 20, a GI50 (UWB1.289) of 6 µM and an IC50 (UWB1.289) of 25 µM. It also gave a TGI (OVCAR-3) of 18, a GI50 (OVCAR-3) of 8 µM and an IC50 (OVCAR-3) of 22 µM. It also gave a TGI (T-47D) of 59, a GI50 (T-47D) of 26 µM and an IC50 (T-47D) of 98 µM. The TGI (PC-3) was 44, the GI50 (PC-3) was 29 µM and the IC50 (PC-3) was 68 µM. It also gave a TGI (UWB1.289 + BRCA1) of 31, a GI50 (UWB1.289 + BRCA1) of 22 µM and an IC50 (UWB1.289 + BRCA1) of 42 µM. It also gave a TGI (K-562) of 35, a GI50 (K-562) of 2 µM and an IC50 (K-562) of 55 µM. For the same compound, the LD50 (in vivo) was 130 mg/kg, the “OS % on Day-70” value [2] was 100% and the “PFS % on Day-70” value [2] was 100%. For the same compound, the “TI % at Day-35” value [2] was 73%, the TGI (MCF-7) was 68 and the GI50 (MCF-7) was 25 µM. The IC50 (MCF-7) was > 100 µM, the TGI (SKOV-3) was 32 and the GI50 (SKOV-3) was 20 µM. The IC50 (SKOV-3) was 44 µM, the TGI (MOLT-4) was 20 and the GI50 (MOLT-4) was 1.5 µM. The IC50 (MOLT-4) was 45 µM and the LD10 (C57Bl/6 mice) was 100 mg/kg.
For `C[C@]12CC(=O)N[C@H]3[C@@H](CCC4=CC(=O)NCC[C@@]43C)[C@@H]1CC[C@@H]2OC(=O)CCOc1ccc(N(CCCl)CCCl)cc1` [Compound 16], the Cures [1] was 0/6, the “MST ± SD” value [1] was 44 days and the T/C % [1] was 489* %. It also gave a TGI (UWB1.289) of 28, a GI50 (UWB1.289) of 3 µM and an IC50 (UWB1.289) of 40 µM. The TGI (OVCAR-3) was 20, the GI50 (OVCAR-3) was 9 µM and the IC50 (OVCAR-3) was 35 µM. It also gave a TGI (T-47D) of 30, a GI50 (T-47D) of 10 µM and an IC50 (T-47D) of 55 µM. For the same compound, the TGI (PC-3) was 29, the GI50 (PC-3) was 16 µM and the IC50 (PC-3) was 51 µM. For the same compound, the TGI (UWB1.289 + BRCA1) was 32, the GI50 (UWB1.289 + BRCA1) was 12 µM and the IC50 (UWB1.289 + BRCA1) was 50 µM. The TGI (K-562) was 47, the GI50 (K-562) was 7 µM and the IC50 (K-562) was 65 µM. The LD50 (in vivo) was 165 mg/kg, the “OS % on Day-70” value [2] was 100% and the “PFS % on Day-70” value [2] was 100%. For the same compound, the “TI % at Day-35” value [2] was 55%, the TGI (MCF-7) was 36 and the GI50 (MCF-7) was 15 µM. For the same compound, the IC50 (MCF-7) was 65 µM, the TGI (SKOV-3) was 46 and the GI50 (SKOV-3) was 20 µM. It also gave an IC50 (SKOV-3) of 70 µM, a TGI (MOLT-4) of 36 and a GI50 (MOLT-4) of 4 µM. For the same compound, the IC50 (MOLT-4) was 56 µM and the LD10 (C57Bl/6 mice) was 140 mg/kg.
In the case of `C[C@]12CC[C@@H]3c4ccc(OC(=O)CCOc5ccc(N(CCCl)CCCl)cc5)cc4CC[C@H]3[C@@H]1CCC(=O)N2` [Compound 6], the Cures [1] is reported as 0/6, the “MST ± SD” value [1] is reported as 36 days and the T/C % [1] is reported as 400* %. The TGI (UWB1.289) was 20, the GI50 (UWB1.289) was 6 µM and the IC50 (UWB1.289) was 44 µM. The TGI (OVCAR-3) was 40, the GI50 (OVCAR-3) was 30 µM and the IC50 (OVCAR-3) was 56 µM. For the same compound, the TGI (T-47D) was 30, the GI50 (T-47D) was 10 µM and the IC50 (T-47D) was 55 µM. The TGI (PC-3) was 29, the GI50 (PC-3) was 16 µM and the IC50 (PC-3) was 51 µM. It also gave a TGI (UWB1.289 + BRCA1) of 66, a GI50 (UWB1.289 + BRCA1) of 18 µM and an IC50 (UWB1.289 + BRCA1) of 88 µM. For the same compound, the TGI (K-562) was 30, the GI50 (K-562) was 5 µM and the IC50 (K-562) was 50 µM. The LD50 (in vivo) was 100 mg/kg, the “OS % on Day-70” value [2] was 100% and the “PFS % on Day-70” value [2] was 100%. For the same compound, the “TI % at Day-35” value [2] was 56%, the TGI (MCF-7) was 36 and the GI50 (MCF-7) was 15 µM. For the same compound, the IC50 (MCF-7) was 65 µM, the TGI (SKOV-3) was 76 and the GI50 (SKOV-3) was 12 µM. The IC50 (SKOV-3) was > 100 µM, the TGI (MOLT-4) was 28 and the GI50 (MOLT-4) was 5 µM. For the same compound, the IC50 (MOLT-4) was 50 µM and the LD10 (C57Bl/6 mice) was 80 mg/kg.
